Results: patent US12077483B2, “Modified amine lipids” (Intellia Therapeutics, Inc., priority 2018, dated 2024)

Tests used:
[1] = system: mouse TTR; experiment: Serum TTR ELISA in mice after LNP delivery; type: in vivo; settings: Table 3, guide G282, CD-1 female mice, 0.1 mpk i.v.; for Serum TTR: Exp. 1, 8, 9, 10; for Serum TTR % TSS: percentage of vehicle control (TSS)
Outline: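 Mouse TTR in serum was quantified by ELISA (samples diluted e.g. 10,000- and/or 2,500-fold) 6–7 days after dosing CD-1 females with LNP, typically 0.1 mpk. Values are reported relative to vehicle-treated controls (%).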

[2] = system: mouse TTR gene; experiment: In vivo editing in mouse liver, LNP with Cas9 mRNA and sgRNA G282, NGS; settings: Table 3; guide G282; CD-1 female mice, 0.1 mpk i.v., liver at 6 or 7 days; Exp. 1, 8, 9, 10
Description: (§1) LNPs were prepared using various amine lipids in a 4-component lipid system consisting of an ionizable lipid (e.g. an amine lipid), DSPC, cholesterol and PEG-2k-DMG. In assays for percent liver editing in mice, Cas9 mRNA and chemically modified sgRNA targeting a mouse sequence were formulated in LNPs, at either a 1:1 w/w ratio or a 1:2 w/w ratio.
(§2) The lipid components were dissolved in 100% ethanol with the lipid component molar ratios described below. The chemically modified sgRNA and Cas9 mRNA were combined and dissolved in 25 mM citrate, 100 mM NaCl, pH 5.0, resulting in a concentration of total RNA cargo of approximately 0.45 mg/mL. The LNPs were formulated with an N/P ratio of about 6, with the ratio of chemically modified sgRNA: Cas9 mRNA at either a 1:1 or 1:2 w/w ratio as described below.
(§3) CD-1 female mice, ranging from 6-10 weeks of age were used in each study. Animals were weighed and grouped according to body weight for preparing dosing solutions based on group average weight. LNPs were dosed via the lateral tail vein in a volume of 0.2 mL per animal (approximately 10 mL per kilogram body weight). The animals were periodically observed for adverse effects for at least 24 hours post dose.
(§4) For studies measuring in vivo editing in liver, CD-1 female mice were dosed at 0.1 mpk unless otherwise noted. Animals were euthanized at 6 or 7 days by exsanguinationvia cardiac puncture under isoflourane anesthesia. Liver tissue was collected from each animal for DNA extraction and analysis. Blood was collected into serum separator tubes or into tubes containing buffered sodium citrate for plasma as described herein. Cohorts of mice were measured for editing by Next-Generation Sequencing (NGS).
(§5) In brief, to quantitatively determine the efficiency of editing at the target location in the genome, genomic DNA was isolated and deep sequencing was utilized to identify the presence of insertions and deletions introduced by gene editing.
(§6) PCR primers were designed around the target site (e.g., B2M), and the genomic area of interest was amplified. Additional PCR was performed according to the manufacturer's protocols (Illumina) to add the necessary chemistry for sequencing. The amplicons were sequenced on an Illumina MiSeq instrument. The reads were aligned to the relevant reference genome (e.g., GRCm38) after eliminating those having low quality scores. The resulting files containing the reads were mapped to the reference genome (BAM files), where reads that overlapped the target region of interest were selected and the number of wild type reads versus the number of reads which contain an insertion, substitution, or deletion was calculated.
(§7) The editing percentage (e.g., the “editing efficiency” or “percent editing”) is defined as the total number of sequence reads with insertions or deletions over the total number of sequence reads, including wild type.
(§8) We assessed in vivo editing efficiency for materials delivered with formulations including various amine lipid compounds. Editing was measured using either G282 (SEQ ID No: 1) which targets the mouse TTR gene or G650 (SEQ ID No. 2) which targets the mouse B2M gene. Lipids described above were assessed for efficacy through in vivo editing experiments. LNPs were formulated at a 1:1 w/w ratio of sgRNA to Cas9 mRNA, and at an N/P ratio of about 6. Molar concentrations of lipids in the lipid component of the LNPs are expressed as mol % amine lipid/DSPC/cholesterol/PEG-2k-DMG, e.g. 50/10/38.5/1.5. The final LNPs were characterized to determine the encapsulation efficiency, polydispersity index, and average particle size according to the analytical methods provided above. Analysis of average particle size, polydispersity (PDI), total RNA content and encapsulation efficiency of RNA are shown in Table 2.
To assess whether the editing was dose responsive, experiments were performed in vivo at various LNP dose levels. […]

[3] = pKa of amine lipid by TNS fluorescence; type: physicochemical; settings: probe TNS (6-(p-toluidino)-2-naphthalenesulfonic acid sodium salt), unformulated amine lipid in ethanol, sodium phosphate buffers -9.0
Outline: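 pKa derived from a sigmoidal fit of normalized TNS fluorescence (321 nm excitation, 448 nm emission) versus pH. Lipid from ethanol stock diluted to about 100 μM final in 0.1 M phosphate buffers, pH 4.5–9.0.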

[4] = system: mouse B2M gene; experiment: In vivo editing in mouse liver, LNP with Cas9 mRNA and sgRNA G650, NGS; settings: Table 3; guide G650; CD-1 female mice, 0.1 mpk i.v., liver at 6 or 7 days; Exp. 2-7
Description: as §1, §2, §3, §4, §5, §6, §7, §8

SMILES	pKa [3]	Serum TTR [1]	Serum TTR % TSS [1]	Editing Mean % Indel [2]	Editing Mean % Indel [4]
CCCCC/C=C\C/C=C\CCCCCCCC(=O)OCC(COC(=O)CCCCCCC/C=C\C/C=C\CCCCC)OC(=O)CCC(CCCCCCCCCCCC)OC(=O)OCCCN(C)CC (stereo not drawn) [Compound 3, 2-((4-(((3-(ethyl(methyl)amino)propoxy)carbonyl)oxy)hexadecanoyl)oxy)propane-1,3-diyl (9Z,9′Z,12Z,12′Z)-bis(octadeca-9,12-dienoate)]	5.89	691 µg/mL	78% TSS	23.7%	–
CCCCC/C=C\C/C=C\CCCCCCCC(=O)OCC(COC(=O)CCCCCCC/C=C\C/C=C\CCCCC)OC(=O)CCC(CCCCCCCCCCCC)OC(=O)NCCCN(C)C (stereo not drawn) [Compound 8, 2-((4-(((3-(dimethylamino)propyl)carbamoyl)oxy)hexadecanoyl)oxy)propane-1,3-diyl]	7.54	745 µg/mL	84% TSS	0.1%	–
CCCCCC/C=C\COC(=O)CCCCCCCC(=O)OCC(COC(=O)CCCCCCCC(=O)OC/C=C\CCCCCC)OC(=O)CCC(CCCCCCCCCCCC)OC(=O)NCC1CCCN1C (stereo not drawn) [Compound 24, O′1,O1-(2-((4-((((1-methylpyrrolidin-2-yl)methyl)carbamoyl)oxy)hexadecanoyl)oxy)propane-1,3-diyl)9,9′-di((Z)-non-2-en-1-yl) di(nonanedioate)]	6.1	–	–	–	6.8%
CCCCC/C=C\C/C=C\CCCCCCCC(=O)OCC(COC(=O)CCCCCCC/C=C\C/C=C\CCCCC)OC(=O)CCCC(CCCCCCCCCCCC)OC(=O)OCCCN(C)C (stereo not drawn) [Compound 25, 2-((5-(((3-(dimethylamino)propoxy)carbonyl)oxy)heptadecanoyl)oxy)propane-1,3-diyl (9Z,9′Z,12Z,12′Z)-bis(octadeca-9,12-dienoate)]	6.12	–	–	–	10.2%
CCCCC/C=C\C/C=C\CCCCCCCC(=O)OCC(COC(=O)CCCCCCC/C=C\C/C=C\CCCCC)OC(=O)CCCC(CCCCCCCCCCCC)OC(=O)OCCCN(C)CC (stereo not drawn) [Compound 26, 2-((5-(((3-(ethyl(methyl)amino)propoxy)carbonyl)oxy)heptadecanoyl)oxy) propane-1,3-diyl (9Z,9′Z,12Z,12′Z)-bis(octadeca-9,12-dienoate)]	5.82	–	–	–	5.2%
CCCCC/C=C\C/C=C\CCCCCCCC(=O)OCC(COC(=O)CCCCCCC/C=C\C/C=C\CCCCC)OC(=O)CCCC(CCCCCCCCCCCC)OC(=O)OCCCN1CCCC1 (stereo not drawn) [Compound 27, 2-((5-(((3-(pyrrolidin-1-yl)propoxy)carbonyl)oxy)heptadecanoyl)oxy)propane-1,3-diyl (9Z,9′Z,12Z,12′Z)-bis(octadeca-9,12-dienoate)]	5.97	–	–	–	13.0%
CCCCC/C=C\C/C=C\CCCCCCCC(=O)OCC(COC(=O)CCCCCCC/C=C\C/C=C\CCCCC)OC(=O)CCCC(CCCCCCCCCCCC)OC(=O)NCCN(C)CC (stereo not drawn) [Compound 28, 2-((5-(((2-(ethyl(methyl)amino)ethyl)carbamoyl)oxy)heptadecanoyl)oxy) propane-1,3-diyl (9Z,9′Z,12Z,12′Z)-bis(octadeca-9,12-dienoate)]	6.06	–	–	–	17.8%

Second part, led by results:

pKa [3]	SMILES	Serum TTR [1]	Serum TTR % TSS [1]	Editing Mean % Indel [2]	Editing Mean % Indel [4]
6.05	CCCCC/C=C\C/C=C\CCCCCCCC(=O)OCC(COC(=O)CCCCCCC/C=C\C/C=C\CCCCC)OC(=O)CCCC(CCCCCCCCCCCC)OC(=O)NCC1CCCN1C (stereo not drawn) [Compound 29, 2-((5-((((1-methylpyrrolidin-2-yl)methyl)carbamoyl)oxy)heptadecanoyl)oxy) propane-1,3-diyl (9Z,9′Z,12Z,12′Z)-bis(octadeca-9,12-dienoate)]	–	–	–	3.6%
6.53	CCCCC/C=C\C/C=C\CCCCCCCC(=O)OCC(COC(=O)CCC(CCCCCCCCCCCC)OC(=O)OCCCN(C)C)OC(=O)CCCCCCC/C=C\C/C=C\CCCCC (stereo not drawn) [Compound 30, 9-dodecyl-2-methyl-7,12-dioxo-6,8,13-trioxa-2-azahexadecane-15,16-diyl (9Z,9′Z,12Z,12′Z)-bis(octadeca-9,12-dienoate)]	841 µg/mL	95% TSS	10.4%	–
6.28	CCCCC/C=C\C/C=C\CCCCCCCC(=O)OCC(COC(=O)CCCCCCC/C=C\C/C=C\CCCCC)OC(=O)CCC(CCCCCCCC)OC(=O)OCCCN(C)C (stereo not drawn) [Compound 31, 2-((4-(((3-(dimethylamino)propoxy)carbonyl)oxy)dodecanoyl)oxy)propane-1,3-diyl (9Z,9′Z,12Z,12′Z)-bis(octadeca-9,12-dienoate)]	–	–	–	15.6%
5.64	CCCCC/C=C\C/C=C\CCCCCCCC(=O)OCC(COC(=O)CCCCCCC/C=C\C/C=C\CCCCC)OC(=O)CCC(CCCCCCCC)OC(=O)OCCCN(CC)CC (stereo not drawn) [Compound 32, 2-((4-(((3-(diethylamino)propoxy)carbonyl)oxy)dodecanoyl)oxy)propane-1,3-diyl (9Z,9′Z,12Z,12′Z)-bis(octadeca-9,12-dienoate)]	–	–	–	11.6%
5.95	CCCCC/C=C\C/C=C\CCCCCCCC(=O)OCC(COC(=O)CCCCCCC/C=C\C/C=C\CCCCC)OC(=O)CCC(CCCCCCCC)OC(=O)OCCCN(C)CC (stereo not drawn) [Compound 33, 2-((4-(((3-(ethyl(methyl)amino)propoxy)carbonyl)oxy)dodecanoyl)oxy)propane-1,3-diyl (9Z,9′Z, 12Z, 12′Z)-bis(octadeca-9,12-dienoate)]	–	–	–	20.0%
5.62	CCCCC/C=C\C/C=C\CCCCCCCC(=O)OCC(COC(=O)CCCCCCC/C=C\C/C=C\CCCCC)OC(=O)CCC(CCCCCCCC)OC(=O)N(C)CCN(C)C (stereo not drawn) [Compound 38, 2-((4-(((2-(dimethylamino)ethyl)(methyl)carbamoyl)oxy)dodecanoyl)oxy) propane-1,3-diyl (9Z,9′Z,12Z,12′Z)-bis(octadeca-9,12-dienoate)]	301 µg/mL	39% TSS	26.7%	–
6.51	CCCCC/C=C\C/C=C\CCCCCCCC(=O)OCC(COC(=O)CCCCCCC/C=C\C/C=C\CCCCC)OC(=O)CCC(OC(=O)NCCN(C)CC)C1CCCCC1 (stereo not drawn) [Compound 41, 2-((4-cyclohexyl-4-(((2-(ethyl(methyl)amino)ethyl)carbamoyl)oxy)butanoyl)oxy) propane-1,3-diyl (9Z,9′Z,12Z,12′Z)-bis(octadeca-9,12-dienoate)]	393 µg/mL	48% TSS	28.8%	–
6.52	CCCCC/C=C\C/C=C\CCCCCCCC(=O)OCC(COC(=O)CCCCCCC/C=C\C/C=C\CCCCC)OC(=O)CCC(CCCC)OC(=O)NCCN(C)CC (stereo not drawn) [Compound 42, 2-((4-(((2-(ethyl(methyl)amino)ethyl)carbamoyl)oxy)octanoyl)oxy)propane-1,3-diyl (9Z,9′Z,12Z,12′Z)-bis(octadeca-9,12-dienoate)]	473 µg/mL	58% TSS	21.6%	–
